pIC50: −log10 of the molar value. Values after ≈ are worked out from the molar mass of the structure shown. Active and inactive are the calls of the source. The calls are words filed in the database; no cut-off is given here.
Columns and labels:
[1] = test system: Mycobacterium tuberculosis; test: Antimycobacterial activity against Mycobacterium tuberculosis H37Rv incubated for 5 days by Bactiter-Glo assay; format: functional; conditions: 120 h
[2] = Cytotoxicity against human HepG2 cells assessed as reduction in cell viability after 40 hrs by Celltiter-Glo assay
[3] = Lipophilicity, log P of compound; conditions: octanol/water
[4] = test system: Mycobacterium tuberculosis; test: Antimycobacterial activity against Mycobacterium tuberculosis H37Rv incubated for 5 days in presence of 25% human serum by Bactiter-Glo assay; format: functional; conditions: 120 h
[5] = test system: Mycobacterium tuberculosis; test: Antimycobacterial activity against GFP-tagged Mycobacterium tuberculosis H37Rv infected in mouse RAW264.7 cells incubated for 4 days by Mask blue/Hoechst/FITC staining based fluorescence microscopic analysis; format: functional; conditions: 96 h
[6] = Aqueous equilibrium solubility of compound in pH 1 solution at 20 degC; conditions: aqueous pH 1 solution
[7] = Aqueous equilibrium solubility of compound in pH 7.4 solution at 20 degC; conditions: aqueous pH 7.4 solution
[8] = test system: Mycobacterium tuberculosis; test: Antimycobacterial activity against Mycobacterium tuberculosis H37Rv incubated for 5 days in presence of 25% mouse serum by Bactiter-Glo assay; format: functional; conditions: 120 h
[9] = test system: Mycobacterium tuberculosis; test: Ratio of MIC80 for Mycobacterium tuberculosis H37Rv in presence of 25% human serum to MIC80 for Mycobacterium tuberculosis H37Rv; format: functional
[10] = Protein binding in human plasma at 1 to 10 uM after 4 hrs by LC-MS/MS analysis; format: ADME, cell-free; conditions: read-out: PPB (converted)
[11] = Protein binding in Swiss mouse plasma at 1 to 10 uM after 4 hrs by LC-MS/MS analysis; format: ADME, cell-free; conditions: read-out: PPB (converted)
[12] = Permeability in human Caco2 cells; conditions: caco-2
[13] = target: T1, Cytochrome P450 3A4 (Homo sapiens, UniProt P08684); test: Inhibition of CYP3A4 in human liver microsomes assessed as 6-beta-hydroxytestosterone metabolite formation using testosterone as substrate incubated for 30 mins by HPLC-MS method
[14] = target: T1, Cytochrome P450 3A4; test: Inhibition of CYP3A4 in human liver microsomes assessed as 1'-hydroxymidazolam metabolite formation using midazolam as substrate incubated for 10 mins by HPLC-MS method
[15] = Bioavailability in Swiss mouse at 3 mg/kg, iv administered as single bolus dose in NMP/Solutol HS15/PBS solution after 24 hrs; format: ADME, organism-based; conditions: in vivo
[16] = AUC in Balb/c mouse plasma infected with Mycobacterium tuberculosis H37Rv at 10 to 100 mg/kg, po administered through gavage as lipidic/water formulation; format: ADME, organism-based
[17] = Time at which plasma concentration stays above invitro MIC80 in presence of mouse serum in Balb/c mouse infected with Mycobacterium tuberculosis H37Rv at 100 mg/kg, po administered through gavage as lipidic/water formulation; format: ADME, organism-based; conditions: in vivo
[18] = Time at which lung concentration stays above invitro MIC80 in presence of mouse serum in Balb/c mouse infected with Mycobacterium tuberculosis H37Rv at 100 mg/kg, po administered through gavage as lipidic/water formulation; format: ADME, organism-based; conditions: in vivo
[19] = test system: Mycobacterium tuberculosis; test: (§1) Antimycobacterial activity against Mycobacterium tuberculosis H37Rv infected in Balb/c mouse assessed as bacterial burden in lungs at 30 mg/kg, po administered daily through gavage starting on day 2 post infection for 4 days per week for 2 weeks as vitamin E/water formulation measured on day 12 post infection (reference value: 7.6 log10CFU); format: functional, Lung
[20] = test system: Mycobacterium tuberculosis; test: as §1, with “300” for “30”; format: functional, Lung
[21] = test system: Mycobacterium tuberculosis; test: as §1, with “100” for “30”; format: functional, Lung
[22] = test system: Mycobacterium tuberculosis; test: as §1, with “600” for “30”, “lipidic/water” for “vitamin E/water”, “7.2” for “7.6”; format: functional, Lung
[23] = test system: Mycobacterium tuberculosis; test: Antimycobacterial activity against Mycobacterium tuberculosis H37Rv infected in po dosed Balb/c mouse assessed as log10 reduction in CFU in lungs administered daily through gavage starting on day 2 post infection for 4 days per week for 2 weeks as lipidic/water formulation measured on day 12 post infection; format: functional; conditions: read-out: MED
[24] = test system: Mycobacterium tuberculosis; test: (§2) Antimycobacterial activity against Mycobacterium tuberculosis H37Rv infected in Balb/c mouse assessed as bacterial burden in lungs at 10 mg/kg, po administered daily through gavage for 2 weeks starting on day 2 post infection measured on day 12 post infection (reference value: 6.4 log10CFU); format: functional, Lung
[25] = test system: Mycobacterium tuberculosis; test: (§3) Antimycobacterial activity against Mycobacterium tuberculosis H37Rv infected in Balb/c mouse assessed as bacterial burden in lungs at 10 mg/kg, po administered daily through gavage starting on day 2 post infection for 4 days per week for 2 weeks measured on day 12 post infection (reference value: 7.8 log10CFU); format: functional, Lung
[26] = test system: Mycobacterium tuberculosis; test: Bacteriostatic activity against Mycobacterium tuberculosis H37Rv incubated for 5 days by Bactiter-Glo assay; format: functional
[27] = test system: Mycobacterium tuberculosis; test: Growth inhibition of Mycobacterium tuberculosis H37Rv at 10 uM incubated for 5 days by Bactiter-Glo assay relative to control; format: functional; conditions: 120 h, read-out: GI
[28] = Selectivity index, ratio of IC50 for human HepG2 cells to MIC80 for Mycobacterium tuberculosis H37Rv; format: toxicity, cell-based; conditions: read-out: Selectivity Index
[29] = target: hERG (KCNH2) (Homo sapiens, UniProt Q12809); test: Inhibition of human ERG at 10 uM relative to control
[30] = test system: Salmonella typhimurium; test: Genotoxicity in Salmonella typhimurium by Ames test; format: toxicity, organism-based; conditions: salmonella enterica subsp. enterica serovar typhimurium
[31] = Drug metabolism in human liver microsomes assessed as CYP450/FMO-mediated demethylation of methoxy group/hydroxylation of distal aryl ring at 5 uM after 20 mins in presence of NADPH; format: ADME
[32] = Drug metabolism in human hepatocytes assessed as demethylation of methoxy group/hydroxylation of distal aryl ring; format: ADME, cell-based, Hepatocyte
[33] = test system: Mycobacterium tuberculosis; test: Antimycobacterial activity against Mycobacterium tuberculosis H37Rv infected in po dosed Balb/c mouse assessed as bacterial burden in lungs administered daily through gavage starting on day 2 post infection for 4 days per week for 2 weeks each 4 days dosing followed by 2 days compound washout measured on day 12 post infection (reference value: 8 log10CFU); format: functional, Lung
[34] = test system: Mycobacterium tuberculosis; test: as §2, with “post infection as 5% soluplus/acetate buffer formulation measured on” for “post infection measured on”; format: functional, Lung
[35] = test system: Mycobacterium tuberculosis; test: as §2, with “lungs at 30 mg/kg, po” for “lungs at 10 mg/kg, po”, “post infection as 5% soluplus/acetate buffer formulation measured on” for “post infection measured on”; format: functional, Lung
[36] = test system: Mycobacterium tuberculosis; test: as §2, with “lungs at 100 mg/kg, po” for “lungs at 10 mg/kg, po”, “post infection as 5% soluplus/acetate buffer formulation measured on” for “post infection measured on”; format: functional, Lung
[37] = test system: Mycobacterium tuberculosis; test: as §2, with “lungs at 300 mg/kg, po” for “lungs at 10 mg/kg, po”, “post infection as 5% soluplus/acetate buffer formulation measured on” for “post infection measured on”; format: functional, Lung
[38] = Time at which plasma concentration stays above invitro MIC80 in presence of mouse serum Balb/c mouse infected with Mycobacterium tuberculosis H37Rv at 300 mg/kg, po administered through gavage as 5% soluplus/acetate buffer formulation; format: ADME, organism-based; conditions: in vivo
[39] = AUC in Balb/c mouse plasma infected with Mycobacterium tuberculosis H37Rv at 300 mg/kg, po administered through gavage as 5% soluplus/acetate buffer formulation; format: ADME, organism-based
[40] = AUC in Balb/c mouse lungs infected with Mycobacterium tuberculosis H37Rv at 300 mg/kg, po administered through gavage as 5% soluplus/acetate buffer formulation; format: ADME, organism-based; conditions: lung
[41] = AUC in Balb/c mouse plasma infected with Mycobacterium tuberculosis H37Rv at 100 mg/kg, po administered through gavage as VitE/PEG200/HPC formulation; format: ADME, organism-based
[42] = Half life in Balb/c mouse infected with Mycobacterium tuberculosis H37Rv at 100 mg/kg, po administered through gavage as VitE/PEG200/HPC formulation; format: ADME, organism-based; conditions: in vivo
[43] = Ratio of drug level in Mycobacterium tuberculosis H37Rv infected Balb/c mouse lung to plasma at 100 mg/kg, po administered through gavage as VitE/PEG200/HPC formulation; conditions: other tissue
[44] = test system: Mycobacterium tuberculosis; test: as §3, with “weeks as VitE/PEG200/HPC formulation” for “weeks”; format: functional, Lung
[45] = test system: Mycobacterium tuberculosis; test: as §3, with “at 30” for “at 10”, “weeks as VitE/PEG200/HPC formulation” for “weeks”; format: functional, Lung
[46] = test system: Mycobacterium tuberculosis; test: as §3, with “at 100” for “at 10”, “weeks as VitE/PEG200/HPC formulation” for “weeks”; format: functional, Lung
[47] = test system: Mus musculus; test: Toxicity in Balb/c mouse infected with Mycobacterium tuberculosis H37Rv at 300 mg/kg, po administered through gavage as single dose; format: organism-based; conditions: in vivo

T1 sequence (P08684 whole entry): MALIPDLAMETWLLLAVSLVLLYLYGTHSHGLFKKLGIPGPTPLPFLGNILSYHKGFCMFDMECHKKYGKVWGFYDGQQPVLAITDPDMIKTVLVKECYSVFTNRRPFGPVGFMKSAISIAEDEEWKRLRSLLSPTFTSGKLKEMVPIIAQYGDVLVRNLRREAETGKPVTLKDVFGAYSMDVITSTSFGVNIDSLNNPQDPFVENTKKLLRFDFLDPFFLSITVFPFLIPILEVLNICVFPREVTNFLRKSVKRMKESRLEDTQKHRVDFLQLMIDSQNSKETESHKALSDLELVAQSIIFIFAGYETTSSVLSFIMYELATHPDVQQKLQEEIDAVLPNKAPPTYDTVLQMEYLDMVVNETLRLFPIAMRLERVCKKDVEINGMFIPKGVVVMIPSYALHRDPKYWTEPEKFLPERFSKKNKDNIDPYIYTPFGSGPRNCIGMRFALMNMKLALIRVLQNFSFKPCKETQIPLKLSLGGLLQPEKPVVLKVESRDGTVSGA
hERG (KCNH2), sequence (Q12809 whole entry): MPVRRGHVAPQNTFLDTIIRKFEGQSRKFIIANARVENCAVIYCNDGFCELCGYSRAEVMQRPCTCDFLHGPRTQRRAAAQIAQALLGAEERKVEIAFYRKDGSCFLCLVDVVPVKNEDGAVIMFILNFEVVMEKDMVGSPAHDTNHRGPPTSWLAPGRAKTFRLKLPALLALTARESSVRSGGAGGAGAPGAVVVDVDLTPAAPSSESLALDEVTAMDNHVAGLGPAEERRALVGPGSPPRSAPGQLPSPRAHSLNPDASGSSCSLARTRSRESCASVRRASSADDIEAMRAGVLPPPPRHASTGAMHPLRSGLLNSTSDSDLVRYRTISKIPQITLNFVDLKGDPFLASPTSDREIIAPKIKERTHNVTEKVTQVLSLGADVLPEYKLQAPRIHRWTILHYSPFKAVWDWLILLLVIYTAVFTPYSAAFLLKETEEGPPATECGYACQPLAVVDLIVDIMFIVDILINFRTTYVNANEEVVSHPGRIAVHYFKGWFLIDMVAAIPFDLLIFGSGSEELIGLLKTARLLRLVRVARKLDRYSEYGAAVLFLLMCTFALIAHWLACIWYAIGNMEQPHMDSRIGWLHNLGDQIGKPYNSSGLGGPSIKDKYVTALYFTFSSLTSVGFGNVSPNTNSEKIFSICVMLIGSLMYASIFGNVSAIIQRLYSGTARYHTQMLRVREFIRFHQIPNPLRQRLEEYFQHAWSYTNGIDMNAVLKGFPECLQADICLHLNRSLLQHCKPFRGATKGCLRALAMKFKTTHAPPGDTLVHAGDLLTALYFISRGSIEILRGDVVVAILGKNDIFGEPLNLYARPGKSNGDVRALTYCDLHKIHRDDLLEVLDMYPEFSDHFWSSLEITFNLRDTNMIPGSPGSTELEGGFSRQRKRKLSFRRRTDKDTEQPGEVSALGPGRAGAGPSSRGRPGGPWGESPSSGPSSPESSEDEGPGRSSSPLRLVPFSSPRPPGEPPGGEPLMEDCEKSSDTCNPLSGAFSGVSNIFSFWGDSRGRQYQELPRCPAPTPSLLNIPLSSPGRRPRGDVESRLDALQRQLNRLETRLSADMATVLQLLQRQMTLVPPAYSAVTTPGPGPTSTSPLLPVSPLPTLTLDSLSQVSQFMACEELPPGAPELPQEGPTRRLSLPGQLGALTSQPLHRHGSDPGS

`Cn1c(NCCc2ccc(Oc3ccc(Cl)cc3)cc2)nc2cc(Cl)ccc2c1=O` showed an MIC80 [1] of 0.036 µM (≈ 0.0159 µg/mL), an IC50 at 40 h ([2]; HepG2 cells) of 10.9 µM and a logP [3] of 5.66. It also gave an MIC80 [4] of 1.9 µM, an MIC80 [5] of 0.133 µM (≈ 0.0586 µg/mL) and a solubility thermodynamic [6] of under 1 µg/mL. For the same compound, the solubility thermodynamic [7] was under 1 µg/mL, the MIC80 [8] was 0.42 µM and the Ratio [9] was 8. The fraction unbound at 4 h [10] was 0.001, the fraction unbound at 4 h [11] was 0.001 and the permeability [12] was “Permeable”. For the same compound, the pIC50 [13] was 4.54, the pIC50 [14] was 4.85 and the bioavailability [15] was 90%. The AUC [16] was 21000 ng·h/mL, the Time [17] was over 96 h and the Time [18] was over 96 h. It also gave an Activity [19] of 7.5 log10CFU, an Activity [20] of 7 log10CFU and an Activity [21] of 7.1 log10CFU. It also gave an Activity [22] of 6.3 log10CFU and a minimal effective dose [23] of 600 mg/kg.

Work on `CO[C@H]1/C=C/O[C@@]2(C)Oc3c(C)c(O)c4c(O)c(c(/C=N/N5CCN(C)CC5)c(O)c4c3C2=O)NC(=O)/C(C)=C\C=C\[C@H](C)[C@H](O)[C@@H](C)[C@@H](O)[C@@H](C)[C@H](OC(C)=O)[C@@H]1C` [RIFAMPIN] yielded an Activity [24] of 3.9 log10CFU and an Activity [25] of 5.2.

`COc1ccc(CCNc2nc3cc(Cl)ccc3c(=O)n2C)cc1` gave an MIC80 [1] of 0.038 µM (≈ 0.0131 µg/mL), an IC50 at 40 h ([2]; HepG2 cells) of 13.4 µM and a logP [3] of 4.08. For the same compound, the Activity [26] was “Active”, the MIC80 [4] was 0.43 µM and the inhibition of growth at 10 µM [27] was over 50%. For the same compound, the MIC80 [5] was 0.163 µM (≈ 0.056 µg/mL), the solubility thermodynamic [6] was 11 µg/mL (≈ 32 µM) and the solubility thermodynamic [7] was at most 1 µg/mL. It also gave an MIC80 [8] of 0.013 µM, a selectivity ratio [28] of over 10 and a Ratio [9] of over 10. The permeability [12] was “Permeable”, the inhibition at 10 µM [29] was 35% and the pIC50 [13] was 5.37. For the same compound, the pIC50 [14] was over 6.00, the Activity [30] was “Non-Toxic” and the Drug metabolism [31] was “Metabolite_Detected”. The Drug metabolism [32] was “Metabolite_Detected”.

For `CC[C@@H](CO)NCCN[C@@H](CC)CO` [ETHAMBUTOL], the Activity [33] was 7 log10CFU.

`Cn1c(NCCc2ccc(-c3ccc(F)cc3)cc2)nc2cc(Cl)ccc2c1=O.O=S(=O)(O)O` showed an Activity [34] of 6.6 log10CFU, an Activity [35] of 5.8 log10CFU and an Activity [36] of 5.5 log10CFU. It also gave an Activity [37] of 4.9 log10CFU, a Time [38] of over 24 h and an AUC [39] of 140000 ng·h/mL. The AUC [40] was 980000 ng·h/mL.

With `Cn1c(NCCc2ccc(-c3ccc(F)cc3)cc2)nc2cc(N)ccc2c1=O` the MIC80 [1] was 0.01 µM (≈ 0.00388 µg/mL), the IC50 at 40 h ([2]; hepg2) was over 30 µM and the MIC80 [4] was 0.01 µM. It also gave an MIC80 [5] of 0.06 µM (≈ 0.0233 µg/mL), an MIC80 [8] of 0.007 µM and a fraction unbound at 4 h [10] of 0.002. The fraction unbound at 4 h [11] was 0.002, the AUC [41] was 29000 ng·h/mL and the half-life [42] was 6 h. For the same compound, the Kp [43] was 4.5, the Activity [44] was 7.4 and the Activity [45] was 7.1. For the same compound, the Activity [46] was 7 and the Activity [47] was “Toxic”.

Source: ChEMBL document CHEMBL3853353, “Identification and optimization of a new series of anti-tubercular quinazolinones” (Bioorg Med Chem Lett, 2016)
